“And” between values parts separate entries of the source, which are not always exact repeats. Equal values may be shown once. Inconclusive results and toxic doses are left out. Rule for the calls: active = survival T/C of 150% or more; inactive = T/C below 125% in these data.
Test system: P388 leukemia ip, CD2F1 mice, survival T/C
Test: NCI In Vivo Anticancer Drug Screen. Data for tumor model P388 Leukemia (intraperitoneal) in CD2F1 (CDF1) mice
Conditions: endpoint: median survival time, higher = longer survival
Method in brief: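 Mice carrying the transplanted tumor received test compound or vehicle. Survival was recorded in each group, and the value is the treated-group measurement divided by that of the vehicle-treated control group.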

Measured: T/C

Cc1c2ccncc2c(C)c2c1[nH]c1ccccc12
active: dose: 20.0 mg/kg/injection, schedule: Q04DX003 (ip), vehicle: distilled water + Tween-80 157 % of control | dose: 20.0 mg/kg/injection, schedule: Q04DX003 (ip), vehicle: water 163 % of control | dose: 21.6 mg/kg/injection, schedule: Q04DX002 (ip), vehicle: Klucel (hydroxypropylcellulose) (HPC) 171 % of control | dose: 21.6 mg/kg/injection, schedule: Q04DX003 (ip), vehicle: water 150 % of control | dose: 25.0 mg/kg/injection, schedule: Q01DX009 (ip), vehicle: saline with Tween-80 204 % of control | dose: 25.0 mg/kg/injection, schedule: Q04DX002 (ip), vehicle: Klucel (hydroxypropylcellulose) (HPC) 153 % of control | dose: 25.0 mg/kg/injection, schedule: Q04DX003 (ip), vehicle: alkali diluted with water 183 % of control | dose: 25.0 mg/kg/injection, schedule: Q04DX003 (ip), vehicle: clinical formulation 178 % of control and 180 % of control | dose: 25.0 mg/kg/injection, schedule: Q04DX003 (ip), vehicle: water 163 % of control | dose: 30.0 mg/kg/injection, schedule: Q04DX003 (ip), vehicle: clinical formulation 198 % of control | dose: 32.0 mg/kg/injection, schedule: Q01DX005 (ip), vehicle: saline with Tween-80 207 % of control | dose: 32.0 mg/kg/injection, schedule: Q01DX005 (iv), vehicle: saline with Tween-80 162 % of control | dose: 32.0 mg/kg/injection, schedule: Q01DX005 (oral), vehicle: saline with Tween-80 186 % of control | dose: 36.0 mg/kg/injection, schedule: Q04DX002 (ip), vehicle: Klucel (hydroxypropylcellulose) (HPC) 191 % of control | dose: 36.0 mg/kg/injection, schedule: Q04DX002 (ip), vehicle: saline with Tween-80 158 % of control | dose: 36.0 mg/kg/injection, schedule: Q04DX003 (ip), vehicle: water 176 % of control | dose: 40.0 mg/kg/injection, schedule: Q01DX005 (ip), vehicle: saline with Tween-80 227 % of control | dose: 40.0 mg/kg/injection, schedule: Q04DX003 (ip), vehicle: distilled water + Tween-80 193 % of control | dose: 43.2 mg/kg/injection, schedule: Q04DX002 (ip), vehicle: saline with Tween-80 176 % of control | dose: 50.0 mg/kg/injection, schedule: Q04DX002 (ip), vehicle: Klucel (hydroxypropylcellulose) (HPC) 168 % of control | dose: 50.0 mg/kg/injection, schedule: Q04DX003 (ip), vehicle: alkali diluted with water 221 % of control | dose: 50.0 mg/kg/injection, schedule: Q04DX003 (ip), vehicle: clinical formulation 181 % of control | dose: 50.0 mg/kg/injection, schedule: Q04DX003 (ip), vehicle: water 167 % of control | dose: 60.0 mg/kg/injection, schedule: Q04DX002 (ip), vehicle: Klucel (hydroxypropylcellulose) (HPC) 198 % of control | dose: 60.0 mg/kg/injection, schedule: Q04DX002 (ip), vehicle: saline with Tween-80 161 % of control | dose: 60.0 mg/kg/injection, schedule: Q04DX003 (ip), vehicle: water 219 % of control | dose: 72.0 mg/kg/injection, schedule: Q04DX002 (ip), vehicle: saline with Tween-80 166 % of control and 199 % of control | dose: 80.0 mg/kg/injection, schedule: Q04DX003 (ip), vehicle: distilled water + Tween-80 190 % of control and 254 % of control | dose: 90.0 mg/kg/injection, schedule: Q04DX002 (ip), vehicle: saline with Tween-80 185 % of control and 190 % of control | dose: 100.0 mg/kg/injection, schedule: Q04DX002 (ip), vehicle: Klucel (hydroxypropylcellulose) (HPC) 220 % of control and 230 % of control | dose: 100.0 mg/kg/injection, schedule: Q04DX003 (ip), vehicle: alkali diluted with water 219 % of control | dose: 100.0 mg/kg/injection, schedule: Q04DX003 (ip), vehicle: water 203 % of control | dose: 120.0 mg/kg/injection, schedule: Q04DX002 (ip), vehicle: saline with Tween-80 157 % of control and 218 % of control | dose: 134.0 mg/kg/injection, schedule: Q04DX002 (ip), vehicle: saline with Tween-80 211 % of control and 214 % of control | dose: 167.0 mg/kg/injection, schedule: Q04DX002 (ip), vehicle: Klucel (hydroxypropylcellulose) (HPC) 207 % of control | dose: 167.0 mg/kg/injection, schedule: Q04DX002 (ip), vehicle: saline with Tween-80 158 % of control | dose: 300.0 mg/kg/injection, schedule: Q04DX002 (ip), vehicle: saline with Tween-80 165 % of control
inactive: dose: 40.0 mg/kg/injection, schedule: Q04DX003 (ip), vehicle: water 117 % of control | dose: 50.0 mg/kg/injection, schedule: Q01DX009 (ip), vehicle: saline with Tween-80 86 % of control | dose: 200.0 mg/kg/injection, schedule: Q04DX002 (ip), vehicle: Klucel (hydroxypropylcellulose) (HPC) 88 % of control | dose: 200.0 mg/kg/injection, schedule: Q04DX003 (ip), vehicle: alkali diluted with water 100 % of control
202 % of control and 90 % of control: dose: 40.0 mg/kg/injection, schedule: Q01DX005 (ip), vehicle: Klucel (hydroxypropylcellulose) (HPC)
